Experimental data taken from patent US20080269279A1, “Substituted furo[2,3-B] pyridine derivatives as cannabinoid-1 receptor modulators” (priority 2007, published 2008).
Where a name gives a salt, the structure may show the parent alone.

Tested on: human GABA α1β3β2 receptors
Assay: GABAa, 3H-muscimol binding assay
Conditions: activity at 10 μM as percentage of activity of control compound P18 at 10 μM (increase of 3H-muscimol binding)
Method: Membranes from recombinant Ltk cells expressing human GABA α1β3β2 receptors were suspended in an ice-cold solution of 100 mM KCl, 10 mM KH2PO4, adjusted to pH=7.4 with 1 M KOH. Tritiated muscimol (PerkinElmer, Wellesley, Mass.) at a concentration of 2 nM, and serial five-fold dilutions of test compounds at 10 μM, 2.0 μM, 400 nM, 80 nM, 16 nM, 3.2 nM, 0.64 nM and 0.13 nM were mixed in 96-well plates containing 200 μL of membrane suspension. Cold muscimol and compound P18 were used as negative and positive controls respectively. The assay mixture was incubated at 4° C. for 2 hours, then harvested on GF/C filter plates and washed with ice-cold 50 mM Tris-Ci buffer. The filter plates were dried and counted in a Wallac MicroBeta® Trilux detector (Model 1450-030; PerkinElmer, Wellesley, Mass.), and the data were downloaded and analyzed using Prism 3.0. The activity of compound P18 at 10 μM was used as reference for the test compounds, and it was expressed as increasing ^3H-muscimol binding by 100%, whereas cold muscimol at 2 μM antagonized ^3H-muscimol binding by 100%. The tested compound's activity at 10 μM was expressed as a percentage of compound P18's activity at 10 μM.
As a reference, the parent compound (the compound not substituted with a R^4 heteroaryl, such as pyrazole or 1,2,4-oxadiazole, as indicated below) is also shown with its Gamma Amino Butyric Acid (GABA) Receptor activity. […] As a result, the compounds of the present invention in which R^4 is a heteroaryl, such as pyrazole or 1,2,4-oxadiazole, have the unexpected benefits of minimizing off target activity at the GABA receptor.
Note: % GABA is defined as the GABA activity of the indicated compound expressed as a percentage of the activity of control compound P18. NA=data not available.

Structure (SMILES) | % GABA Example [%]
CCC(=O)c1oc2nc(-c3ccc(-c4cn[nH]c4)cc3Cl)c(-c3ccc(Cl)cc3)cc2c1NC(C)=O [Example 5, N-{5-(4-Chlorophenyl)-6-[2-chloro-4-(1H-pyrazol-4-yl)phenyl]-2-propionylfuro[2,3-b]pyridin-3-yl}acetamide] | 11
CC(C)C(=O)Nc1c(C(=O)C(C)(C)C)oc2nc(-c3ccc(-c4cn[nH]c4)cc3Cl)c(-c3ccc(Cl)cc3)cc12 [Example 6, N-[5-(4-Chlorophenyl)-6-[2-chloro-4-(1H-pyrazol-4-yl)phenyl]-2-(2,2-dimethylpropanoyl)furo[2,3-b]pyridin-3-yl]-2-methylpropanamide] | 3
Cc1c(C(=O)C(C)(C)C)oc2nc(-c3ccc(-c4cn[nH]c4)cc3Cl)c(-c3ccc(Cl)cc3)cc12 [Example 10, 1-{5-(4-Chlorophenyl)-6-[2-chloro-4-(1H-pyrazol-4-yl)phenyl]-3-methylfuro[2,3-b]pyridin-2-yl}-2,2-dimethylpropan-1-one] | 9
Cc1c(C(=O)CC(C)C)oc2nc(-c3ccc(-c4cn[nH]c4)cc3Cl)c(-c3ccc(Cl)cc3)cc12 [Example 12, 1-{5-(4-Chlorophenyl)-6-[2-chloro-4-(1H-pyrazol-4-yl)phenyl]-3-methylfuro[2,3-b]pyridin-2-yl}-3-methylbutan-1-one] | 51
C[C@H](O)C(=O)Nc1c(C(=O)C(C)(C)C)oc2nc(-c3ccc(-c4cn[nH]c4)cc3Cl)c(-c3ccc(Cl)cc3)cc12 [Example 14, (2S)-N-[5-(4-Chlorophenyl)-6-[2-chloro-4-(1H-pyrazol-4-yl)phenyl]-2-(2,2-dimethylpropanoyl)furo[2,3-b]pyridin-3-yl]-2-hydroxypropanamide] | 13
CCC(=O)c1oc2nc(-c3ccc(-c4cn[nH]c4)cc3Cl)c(-c3ccc(Cl)cc3)cc2c1NC(=O)[C@H](C)O [Example 15, (2S)-N-{5-(4-Chlorophenyl)-6-[2-chloro-4-(1H-pyrazol-4-yl)phenyl]-2-propionylfuro[2,3-b]pyridin-3-yl}-2-hydroxypropanamide] | 13
CCC(=O)c1oc2nc(-c3ccc(-c4cn[nH]c4)cc3Cl)c(-c3ccc(Cl)cc3)cc2c1NC(=O)CO [Example 17, N-{5-(4-Chlorophenyl)-6-[2-chloro-4-(1H-pyrazol-4-yl)phenyl]-2-propionylfuro[2,3-b]pyridin-3-yl}-2-hydroxyacetamidetrifluoroacetate (salt)] | 36
CC(=O)Nc1c(C(=O)C(C)(C)C)oc2nc(-c3ccc(-c4cc[nH]n4)cc3Cl)c(-c3ccc(Cl)cc3)cc12 [Example 19, N-[5-(4-Chlorophenyl)-6-[2-chloro-4-(1H-pyrazol-3-yl)phenyl]-2-(2,2-dimethylpropanoyl)furo[2,3-b]pyridin-3-yl]acetamide] | 16
CC(C)(C)C(=O)c1oc2nc(-c3ccc(-c4cc[nH]n4)cc3Cl)c(-c3ccc(Cl)cc3)cc2c1C(N)=O [Example 20, 5-(4-Chlorophenyl)-6-[2-chloro-4-(1H-pyrazol-3-yl)phenyl]-2-(2,2-dimethylpropanoyl)furo[2,3-b]pyridine-3-carboxamide] | 13
CC(C)C(=O)c1oc2nc(-c3ccc(-c4cc[nH]n4)cc3Cl)c(-c3ccc(Cl)cc3)cc2c1N [Example 22, 1-{3-Amino-5-(4-chlorophenyl)-6-[2-chloro-4-(1H-pyrazol-3-yl)phenyl]furo-[2,3-b]pyridin-2-yl}-2-methylpropan-1-one] | 18
Cc1c(S(=O)(=O)C(C)(C)C)oc2nc(-c3ccc(-c4cc[nH]n4)cc3Cl)c(-c3ccc(Cl)cc3)cc12 [Example 24, 2-(Tert-butylsulfonyl)-5-(4-chlorophenyl)-6-[2-chloro-4-(1H-pyrazol-3-yl)phenyl]-3-methylfuro[2,3-b]pyridine] | 13
Cc1c(C(=O)C(C)C)oc2nc(-c3ccc(-c4cc[nH]n4)cc3Cl)c(-c3ccc(Cl)cc3)cc12 [Example 25, 1-{5-(4-Chlorophenyl)-6-[2-chloro-4-(1H-pyrazol-3-yl)phenyl]-3-methylfuro[2,3-b]pyridin-2-yl}-2-methylpropan-1-one] | 35
CCC(=O)c1oc2nc(-c3ccc(-c4cc[nH]n4)cc3Cl)c(-c3ccc(Cl)cc3)cc2c1C [Example 26, 1-{5-(4-Chlorophenyl)-6-[2-chloro-4-(1H-pyrazol-3-yl)phenyl]-3-methylfuro[2,3-b]pyridin-2-yl}propan-1-one] | 28
CC(C)(C)C(=O)c1oc2nc(-c3ccc(-c4cc[nH]n4)cc3Cl)c(-c3ccc(Cl)cc3)cc2c1NC(=O)CO [Example 27, N-[5-(4-Chlorophenyl)-6-[2-chloro-4-(3H-pyrazol-5-yl)phenyl]-2-(2,2-dimethyl-propanoyl)furo[2,3-b]pyridin-3-yl]-2-hydroxyacetamide] | 29
CC(C)C(=O)c1oc2nc(-c3ccc(-c4cc[nH]n4)cc3Cl)c(-c3ccc(Cl)cc3)cc2c1N1CCCC1=O [Example 28, 1-{5-(4-Chlorophenyl)-6-[2-chloro-4-(1H-pyrazol-3-yl)phenyl]-2-isobutyrylfuro[2,3-b]pyridin-3-yl}pyrrolidin-2-one] | 16
CNC(=O)c1c(C(=O)C(C)(C)C)oc2nc(-c3ccc(-c4cc[nH]n4)cc3Cl)c(-c3ccc(Cl)cc3)cc12 [Example 29, 5-(4-Chlorophenyl)-6-[2-chloro-4-(1H-pyrazol-3-yl)phenyl]-2-(2,2-dimethylpropanoyl)-N-methylfuro[2,3-b]pyridine-3-carboxamide] | 20

More lines, now with the values ahead:

% GABA Example [%] | Structure (SMILES)
12 | CC(=O)Nc1c(C(=O)C(C)(C)C)oc2nc(-c3ccc(-c4cn[nH]c4)cc3Cl)c(-c3ccc(Cl)cc3)cc12 [Example 4, N-[5-(4-Chlorophenyl)-6-[2-chloro-4-(1H-pyrazol-4-yl)phenyl]-2-(2,2-dimethylpropanoyl)furo[2,3-b]pyridin-3-yl]acetamide]
26 | CCC(=O)c1oc2nc(-c3ccc(-c4cn[nH]c4)cc3Cl)c(-c3ccc(Cl)cc3)cc2c1N [Example 8, 1-{3-Amino-5-(4-chlorophenyl)-6-[2-chloro-4-(1H-pyrazol-4-yl)phenyl]furo[2,3-b]pyridin-2-yl}propan-1-one]
30 | Cc1c(C(=O)C(C)(C)O)oc2nc(-c3ccc(-c4cn[nH]c4)cc3Cl)c(-c3ccc(Cl)cc3)cc12 [Example 9, 1-{5-(4-Chlorophenyl)-6-[2-chloro-4-(1H-pyrazol-4-yl)phenyl]-3-methylfuro[2,3-b]pyridin-2-yl}-2-hydroxy-2-methylpropan-1-one]
15 | CCC(=O)c1oc2nc(-c3ccc(-c4cn[nH]c4)cc3Cl)c(-c3ccc(Cl)cc3)cc2c1NC(=O)C(C)(C)O [Example 13, N-{5-(4-Chlorophenyl)-6-[2-chloro-4-(1H-pyrazol-4-yl)phenyl]-2-propionylfuro[2,3-b]pyridin-3-yl}-2-hydroxy-2-methylpropanamide]
11 | CC(C)(C)C(=O)c1oc2nc(-c3ccc(-c4cn[nH]c4)cc3Cl)c(-c3ccc(Cl)cc3)cc2c1NC(=O)C(C)(C)O [Example 16, N-[5-(4-Chlorophenyl)-6-[2-chloro-4-(1H-pyrazol-4-yl)phenyl]-2-(2,2-dimethylpropanoyl)furo[2,3-b]pyridin-3-yl]-2-hydroxy-2-methylpropanamide]
26 | CC(=O)Nc1c(C(=O)C(C)(C)O)oc2nc(-c3ccc(-c4cc[nH]n4)cc3Cl)c(-c3ccc(Cl)cc3)cc12 [Example 18, N-[5-(4-Chlorophenyl)-6-[2-chloro-4-(1H-pyrazol-3-yl)phenyl]-2-(2-hydroxy-2-methylpropanoyl)furo[2,3-b]pyridin-3-yl]acetamide]
27 | CC(C)(O)C(=O)c1oc2nc(-c3ccc(-c4cc[nH]n4)cc3Cl)c(-c3ccc(Cl)cc3)cc2c1N [Example 21, 1-{3-Amino-5-(4-chlorophenyl)-6-[2-chloro-4-(1H-pyrazol-3-yl)phenyl]furo-[2,3-b]pyridin-2-yl}-2-hydroxy-2-methylpropan-1-one]
24 | Cc1c(C(=O)C(C)(C)O)oc2nc(-c3ccc(-c4cc[nH]n4)cc3Cl)c(-c3ccc(Cl)cc3)cc12 [Example 23, 1-{5-(4-Chlorophenyl)-6-[2-chloro-4-(1H-pyrazol-3-yl)phenyl]-3-methylfuro[2,3-b]pyridin-2-yl}-2-hydroxy-2-methylpropan-1-one]
19 | CC(=O)n1cc(-c2ccc(-c3nc4oc(C(=O)C(C)(C)O)c(N)c4cc3-c3ccc(Cl)cc3)c(Cl)c2)cn1 [Example 30, 1-[6-[4-(1-Acetyl-1H-pirazol-4-yl)-2-chlorophenyl]-3-amino-5-(4-chlorophenyl)furo[2,3-b]pyridin-2-yl]-2-hydroxy-2-methylpropan-1-one]
30 | CC(C)(O)C(=O)c1oc2nc(-c3ccc(-c4cn[nH]c4)cc3Cl)c(-c3ccc(Cl)cc3)cc2c1NC(=O)CO [Example 31, N-[5-(4-Chlorophenyl)-6-[2-chloro-4-(1H-pyrazol-4-yl)phenyl]-2-(2-hydroxy-2-methylpropanoyl)-furo[2,3-b]pyridin-3-yl]-2-hydroxyacetamide]
